The subject of series [1] is 4T1. Put plainly: Cytotoxicity against mouse 4T1 cells assessed as cell viability under dark condition up to 25 uM incubated for 24 hrs by MTT assay relative to control. The class given is functional.
Series [2] can be described thus: Aqueous solubility of compound by absorbance based assay. As to conditions: buffer. The class given is physicochemical.
For series [3], the system named is 4T1. Put plainly: Antitumor activity against mouse 4T1 cells implanted in female BALB/c mouse assessed as nuclei rupture at 2.5 mg/kg, iv pretreated for 4 hrs followed by exposure to laser irradiation of 808 nm for 5 mins on every 2 days treated for 15 days by H and E staining based analysis. In kind it is functional, organism-based. The following applies: time 15.0 day.

Series [4] deals with 4T1. Put plainly: Antitumor activity against mouse 4T1 cells implanted in female BALB/c mouse assessed as tumor growth inhibition at 2.5 mg/kg, iv pretreated for 4 hrs followed by exposure to laser irradiation of 808 nm for 5 mins on every 2 days treated for 15 days. In kind it is functional, organism-based. The following applies: time 15.0 day.
The test system of series [5] is 4T1. Put plainly: Antitumor activity against mouse 4T1 cells implanted in female BALB/c mouse assessed as decrease in tumor volume at 2.5 mg/kg, iv treated for 4 hrs on every 2 days treated for 15 days. In kind it is functional, organism-based. The following applies: time 15.0 day.
A short description of series [6]: Toxicity in ICR mouse bearing mouse H22 cells assessed as damage in spleen at 2.5 mg/kg, iv pretreated for 4 hrs followed by exposure to laser irradiation of 808 nm for 5 mins on every 2 days treated for 15 days by H and E staining based analysis. The class given is organism-based. The following applies: in vivo, 360 h, time 15 day.
In series [7] the test system is 4T1. Put plainly: Antitumor activity against mouse 4T1 cells implanted in female BALB/c mouse assessed as loosely arranged cells at 2.5 mg/kg, iv pretreated for 4 hrs followed by exposure to laser irradiation of 808 nm for 5 mins on every 2 days treated for 15 days by H and E staining based analysis. The class given is functional, organism-based. As to conditions: time 15.0 day.

The test system of series [8] is HepG2. Put plainly: Cytotoxicity against human HepG2 cells assessed as cell viability under dark condition up to 25 uM incubated for 24 hrs by MTT assay relative to control. In kind it is functional.
The test system of series [9] is Mitochondrial membrane. Put plainly: Inhibition of mitochondrial membrane potential in mouse 4T1 cells assessed as green fluorescence at 3.12 uM preincubated for 4 hrs followed by exposure to laser irradiation of 808 nm for 2 mins and subsequent incubation for 20 hrs by JC-1 dye based analysis. The class given is cell membranes. The following applies: time 1442.0 min.

The nature of series [10]: Toxicity in ICR mouse bearing mouse H22 cells assessed as damage in kidney at 1.8 mg/kg, iv pretreated for 4 hrs followed by exposure to laser irradiation of 808 nm for 5 mins on every 2 days treated for 15 days by H and E staining based analysis. In kind it is organism-based. The following applies: in vivo, 360 h, time 15 day.
A short description of series [11]: Toxicity in female BALB/c mouse bearing mouse 4T1 cells assessed as damage in liver at 1.8 mg/kg, iv pretreated for 4 hrs followed by exposure to laser irradiation of 808 nm for 5 mins on every 2 days treated for 15 days by H and E staining based analysis. The following applies: in vivo, 360 h, time 15 day. In kind it is organism-based.
Series [12] is described as follows: Toxicity in ICR mouse bearing mouse H22 cells assessed as damage in liver at 1.8 mg/kg, iv pretreated for 4 hrs followed by exposure to laser irradiation of 808 nm for 5 mins on every 2 days treated for 15 days by H and E staining based analysis. As to conditions: in vivo, 360 h, time 15 day. In kind it is organism-based.
Series [13] can be described thus: Toxicity in ICR mouse bearing mouse H22 cells assessed as damage in spleen at 1.8 mg/kg, iv pretreated for 4 hrs followed by exposure to laser irradiation of 808 nm for 5 mins on every 2 days treated for 15 days by H and E staining based analysis. The following applies: in vivo, 360 h, time 15 day. The class given is organism-based.
Series [14] concerns 4T1. Put plainly: Antitumor activity against mouse 4T1 cells implanted in female BALB/c mouse assessed as tumor growth inhibition at 1.8 mg/kg, iv pretreated for 4 hrs followed by exposure to laser irradiation of 808 nm for 5 mins on every 2 days treated for 15 days. The class given is functional, organism-based. As to conditions: time 15.0 day.
Series [15] concerns 4T1. Put plainly: Antitumor activity against mouse 4T1 cells implanted in female BALB/c mouse assessed as cellular damage at 1.8 mg/kg, iv pretreated for 4 hrs followed by exposure to laser irradiation of 808 nm for 5 mins on every 2 days treated for 15 days by H and E staining based analysis. In kind it is functional, organism-based. As to conditions: time 15.0 day.

Each structure is given as a SMILES string. Activity calls are given as the source filed them. The calls are words filed in the database; no cut-off is given here.

For the compound `COCCOCCOCCN1/C(=C/C=C/C(=C/C=C/C2=[N+](CCOCCOCCOC)c3ccccc3C2(C)C)C(=O)OC)C(C)(C)c2ccccc21.[I-]`, the values for the Activity in series [1], in [6] and in series [8] were 55%, “Non-toxic” and 55%, respectively. For the same compound, the solubility entry in [2] is reported as “soluble”. Further, the outcome in [3] and in [7] was Active. Moreover, the inhibition entry in series [4] and in series [9] was “Active” in each case. Moreover, the result in [5] was inactive.

As for `COC(=O)C(=C\C=C\C1=[N+](C)c2ccccc2C1(C)C)/C=C/C=C1/N(C)c2ccccc2C1(C)C.[I-]`, the Activity entry was “Non-toxic” in series [10]; “Non-toxic” in series [11]; “Non-toxic” in series [12]; “Non-toxic” in series [13]; “Not active; Minor Cell Damage Was Observed” in [15]. Moreover, the inhibition entry in series [14] was “Active; Minimal Effect Was Observed”.

The record behind these values is ChEMBL document CHEMBL6182861, “Structural modification of heptamethine indocyanine dyes with improved aqueous solubility and stability for photothermal therapy” (Eur J Med Chem, 2025).
